In the NIST ThermoML archive (doi:10.1021/je900596d):

Conditions: Fluid (supercritical or subcritical phases), Vibrating tube method

FC(F)=C(F)C(F)(F)F [hexafluoropropene]
mass density [kg/m3]
Conditions	343.26 K	348.12 K
3.1 kPa	–	0.11
3.7 kPa	–	0.12
4.8 kPa	–	0.23
5.4 kPa	–	0.18
6.4 kPa	–	0.27
7.4 kPa	–	0.23
8.3 kPa	–	0.31
8.9 kPa	–	0.35
9.9 kPa	–	0.43
11.5 kPa	–	0.57
15.2 kPa	–	0.72
17 kPa	–	0.83
18.8 kPa	–	0.9
22.4 kPa	–	1.11
24.2 kPa	–	1.25
27.7 kPa	–	1.44
29.5 kPa	–	1.44
31.2 kPa	–	1.52
34.9 kPa	–	1.74
36.7 kPa	–	1.87
38.3 kPa	–	1.89
41 kPa	–	2.08
43.9 kPa	–	2.27
46.5 kPa	–	2.39
49.3 kPa	–	2.49
55.8 kPa	–	2.86
59.3 kPa	–	3.01
62.6 kPa	–	3.24
65.9 kPa	–	3.31
72.5 kPa	–	3.77
75.7 kPa	–	3.95
78.9 kPa	–	4.06
82.3 kPa	–	4.24
89 kPa	–	4.57
92.4 kPa	–	4.78
95.9 kPa	–	4.89
99.3 kPa	–	5.1
102.8 kPa	–	5.38
108.9 kPa	–	5.66
121.1 kPa	–	6.31
127.3 kPa	–	6.62
139.4 kPa	–	7.29
145.5 kPa	–	7.59
151.6 kPa	–	7.92
157.7 kPa	–	8.3
168.6 kPa	–	8.79
172.3 kPa	–	9.11
176 kPa	–	9.23
186.9 kPa	–	9.89
190.6 kPa	–	10.07
194.2 kPa	–	10.28
201.5 kPa	–	10.61
208.9 kPa	–	10.99
216.2 kPa	–	11.48
230.6 kPa	–	12.26
237.9 kPa	–	12.55
245.2 kPa	–	13.05
252.4 kPa	–	13.5
266.8 kPa	–	14.29
274 kPa	–	14.64
281 kPa	–	15
295.2 kPa	–	15.84
303.3 kPa	–	16.23
310.5 kPa	–	16.69
317.5 kPa	–	17.06
324.5 kPa	–	17.51
331.5 kPa	–	17.9
338.4 kPa	–	18.25
352.2 kPa	–	19.05
359.1 kPa	–	19.45
366 kPa	–	19.85
379.7 kPa	–	20.59
386.5 kPa	–	20.98
393.2 kPa	–	21.4
399.9 kPa	–	21.73
413.4 kPa	–	22.49
420.1 kPa	–	22.92
426.9 kPa	–	23.28
433.5 kPa	–	23.69
443.2 kPa	–	24.38
470.9 kPa	–	25.92
484.7 kPa	–	26.77
498.3 kPa	–	27.51
515 kPa	–	28.53
528 kPa	–	29.29
541 kPa	–	30.15
566.4 kPa	–	31.68
575.8 kPa	33.42	–
579.2 kPa	–	32.43
590.5 kPa	34.28	–
591.2 kPa	–	33.18
603.3 kPa	–	33.86
604.4 kPa	35.15	–
617.9 kPa	35.97	–
631.9 kPa	36.94	–
638.4 kPa	–	36.05
646.4 kPa	37.76	–
655.4 kPa	–	37.08
660.3 kPa	38.68	–
672.1 kPa	–	38.15
674.2 kPa	39.57	–
688.2 kPa	40.47	–
688.5 kPa	–	39.21
701.9 kPa	41.42	–
704.5 kPa	–	40.22
715.6 kPa	42.26	–
720.3 kPa	–	41.24
729.6 kPa	43.14	–
735.8 kPa	–	42.16
743.3 kPa	44.1	–
756.9 kPa	44.99	–
765.5 kPa	–	44.05
770.5 kPa	45.84	–
783.7 kPa	46.78	–
794.2 kPa	–	45.95
797.6 kPa	47.61	–
808 kPa	–	46.91
810.7 kPa	48.57	–
823.9 kPa	49.41	–
827.5 kPa	–	48.2
844.7 kPa	–	49.34
850.2 kPa	51.23	–
863 kPa	52.13	–
863.4 kPa	–	50.7
876.3 kPa	53.04	–
889.1 kPa	53.92	–
890.4 kPa	–	52.34
902.2 kPa	54.71	–
902.7 kPa	–	53.25
914.9 kPa	55.73	–
915.6 kPa	–	54.2
928.7 kPa	56.6	55.05
941.5 kPa	57.53	–
945.4 kPa	–	56.14
954 kPa	58.46	–
967.8 kPa	59.43	–
972.6 kPa	–	58.01
981 kPa	60.4	–
985.8 kPa	–	58.92
994.4 kPa	61.4	–
1005.6 kPa	–	60.36
1008.2 kPa	62.31	–
1020.2 kPa	63.29	–
1023.4 kPa	–	61.55
1034.9 kPa	64.41	–
1040.8 kPa	–	62.84
1046.9 kPa	65.28	–
1057.8 kPa	–	64.05
1060.3 kPa	66.22	–
1073.4 kPa	67.25	–
1074 kPa	–	65.2
1087.5 kPa	68.21	–
1089.6 kPa	–	66.39
1100.8 kPa	69.23	–
1108 kPa	–	67.73
1115.6 kPa	70.43	–
1129.3 kPa	71.49	–
1138.6 kPa	–	69.96
1141.9 kPa	72.46	–
1150.7 kPa	–	70.83
1155.2 kPa	73.52	–
1168.1 kPa	–	72.19
1170.3 kPa	74.72	–
1184.8 kPa	–	73.38
1185.3 kPa	75.94	–
1200.7 kPa	77.06	–
1201.8 kPa	–	74.83
1215.9 kPa	78.32	–
1219.5 kPa	–	76.17
1231.1 kPa	79.48	–
1231.5 kPa	–	77.05
1246.2 kPa	80.8	–
1248.8 kPa	–	78.38
1260.9 kPa	82.02	–
1265.1 kPa	–	79.72
1275.9 kPa	83.2	–
1280.3 kPa	–	80.92
1290.3 kPa	84.46	–
1297.6 kPa	–	82.21
1305.2 kPa	85.7	–
1313.7 kPa	–	83.6
1318.4 kPa	86.81	–
1330.4 kPa	–	84.96
1332.6 kPa	88.06	–
1346.3 kPa	–	86.2
1347.2 kPa	89.34	–
1361.6 kPa	90.6	–
1362.7 kPa	–	87.68
1375.5 kPa	91.86	–
1378.7 kPa	–	88.93
1389.9 kPa	93.09	–
1395.3 kPa	–	90.32
1403.7 kPa	94.34	–
1410.5 kPa	–	91.58
1417.7 kPa	95.63	–
1426.3 kPa	–	92.94
1431.1 kPa	96.88	–
1442.6 kPa	–	94.4
1445 kPa	98.11	–
1458.7 kPa	99.32	–
1460.3 kPa	–	95.93
1471.8 kPa	100.55	–
1473.3 kPa	–	97.06
1485.2 kPa	101.78	–
1487.3 kPa	–	98.32
1498.3 kPa	103.12	–
1511.1 kPa	104.29	–
1511.6 kPa	–	100.57
1540.1 kPa	–	103.11
1562.1 kPa	109.24	–
1566 kPa	–	105.5
1588.6 kPa	111.94	–
1592.2 kPa	–	107.78
1614.7 kPa	114.55	–
1616.1 kPa	–	110.1
1639.3 kPa	–	112.32
1641.2 kPa	117.35	–
1669.2 kPa	120.33	–
1683.8 kPa	–	116.62
1691 kPa	122.68	–
1708.4 kPa	–	119.29
1719.3 kPa	125.81	–
1732.6 kPa	–	121.75
1745.8 kPa	128.82	–
1756.5 kPa	–	124.29
1773.3 kPa	132.05	–
1800.9 kPa	135.31	–
1827.4 kPa	138.58	–
1854.7 kPa	141.97	–
1880.9 kPa	145.46	–
1908.3 kPa	149.04	–
1933.9 kPa	152.57	–
1960.3 kPa	156.37	–
1986.1 kPa	160.18	–
2014.5 kPa	164.44	–
2041.7 kPa	168.76	–
2069.4 kPa	173.21	–
2096.3 kPa	177.82	–
2121.6 kPa	182.61	–
2139 kPa	185.89	–
2156.2 kPa	189.13	–
2172.4 kPa	192.4	–
2188.6 kPa	195.87	–
2204.8 kPa	199.3	–
2221.6 kPa	203.18	–
2237.7 kPa	208.04	–
2240 kPa	209.71	–
2240.5 kPa	210.31	–
2241 kPa	210.66	–
2241.7 kPa	211.34	–
2242.3 kPa	212.06	–
2242.9 kPa	213.01	–
2243.5 kPa	214.62	–
2243.9 kPa	215.07	–
2244.6 kPa	216.87	–
2245.3 kPa	218.74	–
2245.7 kPa	219.44	–
2246.2 kPa	220.03	–
2246.7 kPa	220.73	–
2247.1 kPa	221.76	–
2247.5 kPa	223.54	–
2248 kPa	224.32	–
2248.4 kPa	225.47	–
2248.8 kPa	227.07	–
2249.3 kPa	230.72	–
2249.7 kPa	239.12	–
